For ten compounds, melting point results are on record in patent US8648096B2, “N-methylaminomethyl isoindole compounds and compositions comprising and methods of using the same” (Celgene Corporation, priority 2006, dated 2014).

Regarding `CN(Cc1cccc2c1C(=O)N(C1CCC(=O)NC1=O)C2=O)C(=O)OC(C)(C)C` (stereo not shown) [Example 5.1, [2-(2,6-dioxo-piperidin-3-yl)-1,3-dioxo-2,3-dihydro-1H-isoindol-4-ylmethyl]-methyl-carbamic acid T-butyl ester], the melting point – broadly, the temperature, or range, at which the solid turns liquid – is 138 to 140 °C.

`Cc1cccc(NC(=O)N(C)Cc2cccc3c2CN(C2CCC(=O)NC2=O)C3=O)c1` (stereo not shown) [Example 5.29, 1-[2-(2,6-dioxo-piperidin-3-yl)-1-oxo-2,3-dihydro-1H-isoindol-4-ylmethyl]-1-methyl-3-M-tolyl-urea] registered a melting point of 208 to 210 °C.

Consider `CCCNC(=O)N(C)Cc1cccc2c1CN(C1CCC(=O)NC1=O)C2=O` (stereo not shown) [Example 5.30, 1-[2-(2,6-dioxo-piperidin-3-yl)-1-oxo-2,3-dihydro-1H-isoindol-4-ylmethyl]-1-methyl-3-propyl-urea], for which the melting point fell in the range of 220 to 222 °C.

Compound `CN(Cc1cccc2c1CN(C1CCC(=O)NC1=O)C2=O)C(=O)Nc1cccc(Cl)c1` (stereo not shown) [Example 5.32, 3-(3-chloro-phenyl)-1-[2-(2,6-dioxo-piperidin-3-yl)-1-oxo-2,3-dihydro-1H-isoindol-4-ylmethyl]-1-methyl-urea] displayed a melting point of 193 to 195 °C.

For `CN(Cc1cccc2c1CN(C1CCC(=O)NC1=O)C2=O)C(=O)Nc1cccc(C(F)(F)F)c1` (stereo not shown) [Example 5.34, 1-[2-(2,6-dioxo-piperidin-3-yl)-1-oxo-2,3-dihydro-1H-isoindol-4-ylmethyl]-1-methyl-3-(3-trifluoromethyl-phenyl)-urea], the melting point lay in the range of 198 to 200 °C.

In the case of `CN(Cc1cccc2c1C(=O)N(C1CCC(=O)NC1=O)C2=O)C(=O)Nc1cccc(Cl)c1` (stereo not shown) [Example 5.35, 3-(3-chloro-phenyl)-1-[2-(2,6-dioxo-piperidin-3-yl)-1,3-dioxo-2,3-dihydro-1H-isoindol-4-ylmethyl]-1-methyl-urea], the melting point lay within 193 to 195 °C.

In turn, `CN(Cc1cccc2c1C(=O)N(C1CCC(=O)NC1=O)C2=O)C(=O)NC(C)(C)C` (stereo not shown) [Example 5.36, 3-tert-butyl-1-[2-(2,6-dioxo-piperidin-3-yl)-1,3-dioxo-2,3-dihydro-1H-isoindol-4-ylmethyl]-1-methyl-urea] gave a melting point of 188 to 190 °C.

Regarding `CN(Cc1cccc2c1CN(C1CCC(=O)NC1=O)C2=O)C(=O)Nc1cc(Cl)cc(Cl)c1` (stereo not shown) [Example 5.37, 3-(3,5-dichloro-phenyl)-1-[2-(2,6-dioxo-piperidin-3-yl)-1-oxo-2,3-dihydro-1H-isoindol-4-ylmethyl]-1-methyl-urea], the melting point fell in the range of 285 to 287 °C.

Compound `Cc1ccc(NC(=O)N(C)Cc2cccc3c2C(=O)N(C2CCC(=O)NC2=O)C3=O)cc1C` (stereo not shown) [Example 5.40, 3-(3,4-dimethyl-phenyl)-1-[2-(2,6-dioxo-piperidin-3-yl)-1,3-dioxo-2,3-dihydro-1H-isoindol-4-ylmethyl]-1-methyl-urea] yielded a melting point of 202 to 204 °C.

`CN(Cc1cccc2c1CN(C1CCC(=O)NC1=O)C2=O)C(=O)Nc1cccc2ccccc12` (stereo not shown) [Example 5.41, 1-[2-(2,6-dioxo-piperidin-3-yl)-1-oxo-2,3-dihydro-1H-isoindol-4-ylmethyl]-1-methyl-3-naphthalen-1-yl-urea] yielded a melting point of 292 to 294 °C.
